According to article PMC11676667, “Pharmacokinetics of Oral Cannabinoid Δ8-Tetrahydrocannabivarin and Its Main Metabolites in Healthy Participants” (Pharmaceuticals, 2024):
Where two headings read alike, the source gives them in different places.

Experiment: Plasma pharmacokinetics after single oral dose of Δ8-THCV in MCT oil (LC-MS/MS, non-compartmental analysis)
Format: in vivo, human
Conditions: for concentration at 0.5 h / concentration at 1 h / concentration at 2 h / concentration at 4 h / concentration at 6 h / concentration at 8 h / AUC(0-t) / Cmax / MRT / Tmax: human; for concentration at 0.5 h / concentration at 1 h / concentration at 2 h / concentration at 4 h / concentration at 6 h / concentration at 8 h: oral; for AUC(0-t) / Cmax / MRT / Tmax: po; for MRT: read-out: MRT (mean residence time)
Procedure, shortened: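 Healthy participants received single oral Δ8-THCV in MCT oil (50 mg/mL; 12.5-200 mg, or placebo) after a high-fat, high-calorie breakfast, with ≥1-week washout. Plasma (K2EDTA) sampled predose and 0.5-8 h post-dose, assayed by validated LC-MS/MS including metabolites; PK by non-compartmental analysis, sub-LLOQ values set to 0.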

[1] = plasma, 100 mg, 100 mg Δ8-THCV dose, Mean (SD, %CV)
[2] = plasma, 100 mg, 100 mg Δ8-THCV dose, Median (IQ Range)
[3] = plasma, 200 mg, 200 mg Δ8-THCV dose, Mean (SD, %CV)
[4] = plasma, 200 mg, 200 mg Δ8-THCV dose, Median (IQ Range)
[5] = plasma, 12.5 mg, 12.5 mg single oral Δ8-THCV in MCT oil, Mean (±SD)
[6] = plasma, 12.5 mg, 12.5 mg single oral Δ8-THCV in MCT oil, Median (Range)
[7] = plasma, 25 mg, 25 mg single oral Δ8-THCV in MCT oil, Mean (±SD)
[8] = plasma, 25 mg, 25 mg single oral Δ8-THCV in MCT oil, Median (Range)
[9] = plasma, 50 mg, 50 mg single oral Δ8-THCV in MCT oil, Mean (±SD)
[10] = plasma, 50 mg, 50 mg single oral Δ8-THCV in MCT oil, Median (Range)
[11] = plasma, 100 mg, 100 mg single oral Δ8-THCV in MCT oil, Mean (±SD)
[12] = plasma, 100 mg, 100 mg single oral Δ8-THCV in MCT oil, Median (Range)
[13] = plasma, 200 mg, 200 mg single oral Δ8-THCV in MCT oil, Mean (±SD)
[14] = plasma, 200 mg, 200 mg single oral Δ8-THCV in MCT oil, Median (Range)

Compound: CCCc1cc(O)c2c(c1)OC(C)(C)[C@@H]1CC=C(C)C[C@@H]21 [Δ8-THCV, Δ8-tetrahydrocannabivarin]
- concentration at 0.5 h [1]: 0.2 ng/mL
- concentration at 0.5 h [2]: 0 ng/mL
- concentration at 1 h [1]: 4.2 ng/mL
- concentration at 1 h [2]: 2.1 ng/mL
- concentration at 2 h [1]: 7.1 ng/mL
- concentration at 2 h [2]: 5.5 ng/mL
- concentration at 4 h [1]: 11.4 ng/mL
- concentration at 4 h [2]: 7.3 ng/mL
- concentration at 6 h [1]: 12.3 ng/mL
- concentration at 6 h [2]: 7.7 ng/mL
- concentration at 8 h [1]: 4.1 ng/mL
- concentration at 8 h [2]: 3.1 ng/mL
- concentration at 0.5 h [3]: 0.1 ng/mL
- concentration at 0.5 h [4]: 0 ng/mL
- concentration at 1 h [3]: 3.6 ng/mL
- concentration at 1 h [4]: 2 ng/mL
- concentration at 2 h [3]: 21.4 ng/mL
- concentration at 2 h [4]: 14.3 ng/mL
- concentration at 4 h [3]: 29.4 ng/mL
- concentration at 4 h [4]: 33.3 ng/mL
- concentration at 6 h [3]: 26.6 ng/mL
- concentration at 6 h [4]: 21.8 ng/mL
- concentration at 8 h [3]: 21.2 ng/mL
- concentration at 8 h [4]: 13.4 ng/mL
- AUC(0-t) [5]: 3.5 ng·h/mL
- Cmax [5]: 1.6 ng/mL
- AUC(0-t) [6]: 2.1 ng·h/mL
- Cmax [6]: 1.1 ng/mL
- MRT (plasma, 12.5 mg, 12.5 mg single oral Δ8-THCV in MCT oil, plasma, Mean (±SD)): 4 h
- Tmax (plasma, 12.5 mg, 12.5 mg single oral Δ8-THCV in MCT oil, plasma, Mean (±SD), read-out: tmax): 3.9 h
- MRT (plasma, 12.5 mg, 12.5 mg single oral Δ8-THCV in MCT oil, plasma, Median (Range)): 4 h
- Tmax (plasma, 12.5 mg, 12.5 mg single oral Δ8-THCV in MCT oil, plasma, Median (Range), read-out: tmax): 4 h
- AUC(0-t) [7]: 7.4 ng·h/mL
- Cmax [7]: 2.6 ng/mL
- AUC(0-t) [8]: 5.2 ng·h/mL
- Cmax [8]: 2.1 ng/mL
- MRT (plasma, 25 mg, 25 mg single oral Δ8-THCV in MCT oil, plasma, Mean (±SD)): 4.1 h
- Tmax (plasma, 25 mg, 25 mg single oral Δ8-THCV in MCT oil, plasma, Mean (±SD), read-out: tmax): 3.8 h
- MRT (plasma, 25 mg, 25 mg single oral Δ8-THCV in MCT oil, plasma, Median (Range)): 4.2 h
- Tmax (plasma, 25 mg, 25 mg single oral Δ8-THCV in MCT oil, plasma, Median (Range), read-out: tmax): 4 h
- AUC(0-t) [9]: 27.3 ng·h/mL
- Cmax [9]: 10 ng/mL
- AUC(0-t) [10]: 24.9 ng·h/mL
- Cmax [10]: 10 ng/mL
- MRT (plasma, 50 mg, 50 mg single oral Δ8-THCV in MCT oil, plasma, Mean (±SD)): 5.2 h
- Tmax (plasma, 50 mg, 50 mg single oral Δ8-THCV in MCT oil, plasma, Mean (±SD), read-out: tmax): 5 h
- MRT (plasma, 50 mg, 50 mg single oral Δ8-THCV in MCT oil, plasma, Median (Range)): 5.4 h
- Tmax (plasma, 50 mg, 50 mg single oral Δ8-THCV in MCT oil, plasma, Median (Range), read-out: tmax): 6 h
- AUC(0-t) [11]: 65.5 ng·h/mL
- Cmax [11]: 21.5 ng/mL
- AUC(0-t) [12]: 58.4 ng·h/mL
- Cmax [12]: 22 ng/mL
- MRT (plasma, 100 mg, 100 mg single oral Δ8-THCV in MCT oil, plasma, Mean (±SD)): 4.5 h
- Tmax (plasma, 100 mg, 100 mg single oral Δ8-THCV in MCT oil, plasma, Mean (±SD), read-out: tmax): 4.2 h
- MRT (plasma, 100 mg, 100 mg single oral Δ8-THCV in MCT oil, plasma, Median (Range)): 4.1 h
- Tmax (plasma, 100 mg, 100 mg single oral Δ8-THCV in MCT oil, plasma, Median (Range), read-out: tmax): 4 h
- AUC(0-t) [13]: 168 ng·h/mL
- Cmax [13]: 52.9 ng/mL
- AUC(0-t) [14]: 165 ng·h/mL
- Cmax [14]: 51.7 ng/mL
- MRT (plasma, 200 mg, 200 mg single oral Δ8-THCV in MCT oil, plasma, Mean (±SD)): 4.7 h
- Tmax (plasma, 200 mg, 200 mg single oral Δ8-THCV in MCT oil, plasma, Mean (±SD), read-out: tmax): 4.7 h
- MRT (plasma, 200 mg, 200 mg single oral Δ8-THCV in MCT oil, plasma, Median (Range)): 4.7 h
- Tmax (plasma, 200 mg, 200 mg single oral Δ8-THCV in MCT oil, plasma, Median (Range), read-out: tmax): 4 h
- Tmax (plasma, across oral Δ8-THCV doses 12.5-200 mg, plasma, read-out: median time-to-maximum concentration (tmax), range across doses): 3.8 to 5 h
- number of positive plasma samples (of 504 plasma samples from 15 participants after oral Δ8-THCV): 236
- concentration in representative plasma sample (one subject after oral Δ8-THCV in MCT oil, Figure A1): 69.8 ng/mL
- increase of median AUClast every two-fold increase in the dose (oral Δ8-THCV 12.5-200 mg, plasma): 2.3- to 4.8 fold
- tmax later after doses greater than 50 mg compared to the 12.5 mg and 25 mg doses (oral Δ8-THCV, plasma): 1.3 fold
